Laboratory results taken from US11174264B2, “TYK2 inhibitors and uses thereof” (Nimbus Lakshmi, Inc., priority 2019, dated 2021).

What was measured:
[1] = test system: IL-12 induced STAT4 phophorylation mediated by Tyk2/JAK2 (heterodimeric complex); experiment: IL-12 Induced pSTAT4 in Human PBMC; assay type: cell-based; conditions: for IC50: 1.7 ng/mL IL-12, read-out: PBMC_IL-12-pSTAT4 (IC50); for inhibition at 0.05 µM: Homo sapiens, PBMC, 1.7 ng/mL IL-12, read-out: PBMC_IL-12-pSTAT4 (% Inhibition_Average_@0.05 uM) [%]
Procedure: Human PBMC are isolated from buffy coat and are stored frozen for assays as needed. […] 15 μl of compound or DMSO is added to the well at the desired concentrations and incubated at 1 hr at 37° C. 15 μl of stimulus (final concentration of 1.7 ng/mL IL-12) is added for 30 minutes prior to pSTAT4 and total STAT4 analysis using cell lysates prepared and analyzed by MSD reagents as per manufacturer protocol. The final DMSO concentration of compound in the assay is 0.1%.
The IL-12 Induced pSTAT4 assay evaluates the inhibition of IL-12 induced STAT4 phophorylation mediated by Tyk2/JAK2 (heterodimeric complex).

[2] = molecular target: human TYK2 (JH2domain-pseudokinase) (Homo sapiens (Human), UniProt P29597); experiment: TYK2 JH2 Domain Binding Assay (KINOMEscan); conditions: read-out: hTYK2_JH2_Binding (Kd)
human TYK2 (JH2domain-pseudokinase), sequence (P29597 556-888): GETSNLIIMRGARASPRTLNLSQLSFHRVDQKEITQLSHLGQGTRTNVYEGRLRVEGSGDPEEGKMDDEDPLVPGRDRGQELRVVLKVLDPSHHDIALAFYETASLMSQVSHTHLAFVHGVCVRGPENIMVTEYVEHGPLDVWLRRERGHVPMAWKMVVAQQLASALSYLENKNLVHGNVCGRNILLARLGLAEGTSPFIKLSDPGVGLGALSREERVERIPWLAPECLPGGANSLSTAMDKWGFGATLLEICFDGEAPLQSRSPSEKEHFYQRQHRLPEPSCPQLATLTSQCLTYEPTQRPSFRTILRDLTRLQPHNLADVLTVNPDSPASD
Procedure: Binding constants for compounds of the present invention against the JH2 domain were determined by the following protocol for a KINOMEscan® assay (DiscoveRx). A fusion protein of a partial length construct of human TYK2 (JH2domain-pseudokinase) (amino acids G556 to D888 based on reference sequence NP_003322.3) and the DNA binding domain of NFkB was expressed in transiently transfected HEK293 cells. From these HEK 293 cells, extracts were prepared in M-PER extraction buffer (Pierce) in the presence of Protease Inhibitor Cocktail Complete (Roche) and Phosphatase Inhibitor Cocktail Set II (Merck) per manufacturers' instructions. The TYK2 (JH2domain-pseudokinase) fusion protein was labeled with a chimeric double-stranded DNA tag containing the NFkB binding site (5′-[…]-3′) fused to an amplicon for qPCR readout, which was added directly to the expression extract (the final concentration of DNA-tag in the binding reaction is 0.1 nM).
The liganded beads were blocked with excess biotin and washed with blocking buffer (SeaBlock (Pierce), 1% BSA, 0.05% Tween 20, 1 mM DTT) to remove unbound ligand and to reduce nonspecific binding.
Extracts were used directly in binding assays without any enzyme purification steps at a ≥10,000-fold overall stock dilution (final DNA-tagged enzyme concentration <0.1 nM). Extracts were loaded with DNA-tag and diluted into the binding reaction in a two step process. First extracts were diluted 1:100 in 1× binding buffer (PBS/0.05% Tween 20/10 mM DTT/0.1% BSA/2 μg/ml sonicated salmon sperm DNA) containing 10 nM DNA-tag. This dilution was allowed to equilibrate at room temperature for 15 minutes and then subsequently diluted 1:100 in 1× binding buffer. […] Kds were determined using an 11-point 3-fold compound dilution series with three DMSO control points. […] The compounds were then diluted directly into the assays such that the final concentration of DMSO was 0.9%. All reactions performed in polypropylene 384-well plates. Each was a final volume of 0.02 mL. Assays were incubated with shaking for 1 hour at room temperature. Then the beads were pelleted and washed with wash buffer (1×PBS, 0.05% Tween 20) to remove displaced kinase and test compound. […] The qPCR protocol consisted of a 10 minute hot start at 95° C., followed by 35 cycles of 95° C. for 15 seconds, 60° C. for 1 minute.
The compounds were then diluted directly into the assays such that the final concentration of DMSO was 0.9%. […] Kd measurements were performed in duplicate.
Binding constants (Kd values) were calculated with a standard dose-response curve using the Hill equation: […]
The Hill Slope was set to −1.

JAK1 kinase domain = JAK1 kinase domain (Homo sapiens (Human), UniProt P23458); experiment: JAK1 Radioactive Kinase Assay; assay type: biochemical; conditions: 10 μM compound; for inhibition at 10 µM: read-out: JAK1_IC50_RB (% INH_@_10 uM) at 10.0 uM [% INH]
JAK1 kinase domain, sequence (P23458 875-1153): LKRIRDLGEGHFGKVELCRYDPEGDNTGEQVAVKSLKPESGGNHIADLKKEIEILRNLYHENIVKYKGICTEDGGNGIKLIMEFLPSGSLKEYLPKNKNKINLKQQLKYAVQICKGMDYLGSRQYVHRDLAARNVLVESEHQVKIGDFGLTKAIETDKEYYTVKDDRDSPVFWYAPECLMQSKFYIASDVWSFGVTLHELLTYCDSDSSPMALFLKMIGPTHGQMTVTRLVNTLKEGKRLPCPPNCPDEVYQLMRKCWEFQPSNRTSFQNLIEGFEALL
Text: (§1) Similar assays were run to measure the percent inhibition at the JAK1 and JAK3 kinase domains.

JAK3 kinase domain = JAK3 kinase domain (Homo sapiens (Human), UniProt P52333); experiment: JAK3 Radioactive Kinase Assay; assay type: biochemical; conditions: 10 μM compound; for inhibition at 10 µM: read-out: JAK3_IC50_RB (% INH_@_10 uM) at 10.0 uM [% INH]
JAK3 kinase domain, sequence (P52333 822-1111): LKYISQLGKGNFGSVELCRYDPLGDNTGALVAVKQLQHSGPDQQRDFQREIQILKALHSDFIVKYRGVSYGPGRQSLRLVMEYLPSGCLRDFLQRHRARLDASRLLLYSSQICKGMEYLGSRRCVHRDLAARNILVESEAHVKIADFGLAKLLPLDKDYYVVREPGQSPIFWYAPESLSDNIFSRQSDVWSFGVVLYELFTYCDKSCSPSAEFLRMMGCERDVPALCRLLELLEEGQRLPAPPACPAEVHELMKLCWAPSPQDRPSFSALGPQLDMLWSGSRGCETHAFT
Text: as §1

JAK2 kinase domain (JH1) = JAK2 kinase domain (JH1) (Homo sapiens (Human), UniProt O60674); experiment: JAK2 Radioactive Kinase Assay; assay type: biochemical; conditions: 10 μM compound, ATP at 10 μM; for inhibition at 10 µM: read-out: JAK2_IC50_RB (% INH_@_10 uM) at 10.0 uM [% INH]
JAK2 kinase domain (JH1), sequence (O60674 849-1124): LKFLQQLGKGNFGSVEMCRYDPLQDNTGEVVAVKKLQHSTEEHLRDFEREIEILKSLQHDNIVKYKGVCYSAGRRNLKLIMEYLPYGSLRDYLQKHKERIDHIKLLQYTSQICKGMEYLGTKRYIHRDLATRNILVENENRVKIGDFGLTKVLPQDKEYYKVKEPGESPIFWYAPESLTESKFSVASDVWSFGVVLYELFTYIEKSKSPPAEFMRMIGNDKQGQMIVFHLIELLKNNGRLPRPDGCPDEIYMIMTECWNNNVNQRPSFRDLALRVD
Procedure: (§2) The Tyk2 and JAK2 radioactive kinase assay measures the percent inhibition at the Tyk2 kinase domain (JH1) and the percent inhibition at the JAK2 kinase domain (JH1). Results of the assay are expressed as percent inhibition at 10 μM.

Tyk2 kinase domain (JH1) = Tyk2 kinase domain (JH1) (Homo sapiens (Human), UniProt P29597); experiment: Tyk2 Radioactive Kinase Assay; assay type: biochemical; conditions: 10 μM compound, ATP at 10 μM; read-out: TYK2_IC50_RB (% INH_@_10 uM) at 10.0 uM [% INH]
Tyk2 kinase domain (JH1), sequence (P29597 897-1176): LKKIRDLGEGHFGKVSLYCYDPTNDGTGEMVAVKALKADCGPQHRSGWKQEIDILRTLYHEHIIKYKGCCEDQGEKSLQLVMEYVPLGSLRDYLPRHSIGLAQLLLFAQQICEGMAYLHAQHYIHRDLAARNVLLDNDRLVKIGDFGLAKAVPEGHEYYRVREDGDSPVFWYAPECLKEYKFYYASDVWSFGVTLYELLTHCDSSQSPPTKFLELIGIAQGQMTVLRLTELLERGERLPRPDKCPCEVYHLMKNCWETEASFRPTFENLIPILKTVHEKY
Procedure: as §2

Row | SMILES | IC50 [1] [pM] | Kd [2] [pM] | inhibition at 0.05 µM ([1]; 0.05 μM compound) [%] | also measured
1 | CNc1cc(-c2cn(C(C)C)c3ncccc23)nn2c(C(=O)N[C@H]3CC[C@H]3O)cnc12 (racemic) [Compound I-15, N-(2-hydroxycyclobutyl)-6-(1-isopropyl-1H-pyrrolo[2,3-b]pyridin-3-yl)-8-(methylamino)imidazo[1,2-b]pyridazine-3-carboxamide] | < 100000 | < 200 | – | PBMC_IL-12-pSTAT4 (% Inhibition_Average_@0.05 uM) [%] ([1]; 0.05 μM compound, 1.7 ng/mL IL-12): ** (had a percent inhibition at 0.05 μM between 50 and 70); JAK1_IC50_RB (% INH_@_10 uM) at 10.0 uM [% INH] (JAK1 kinase domain): A (had a percent inhibition at 10 μM lower than 50); JAK3_IC50_RB (% INH_@_10 uM) at 10.0 uM [% INH] (JAK3 kinase domain): A (had a percent inhibition at 10 μM lower than 50); JAK2_IC50_RB (% INH_@_10 uM) at 10.0 uM [% INH] (JAK2 kinase domain (JH1)): A (had a percent inhibition at 10 μM lower than 50)
2 | CNc1cc(Nc2cccn([C@H]3CC[C@H](OC)CC3)c2=O)nn2c(C(=O)N[C@H]3CC[C@@H]3OC)cnc12 (racemic) [Compound I-21, N-(2-methoxycyclobutyl)-6-((1-((1r,4S)-4-methoxycyclohexyl)-2-oxo-1,2-dihydropyridin-3-yl)amino)-8-(methylamino)imidazo[1,2-b]pyridazine-3-carboxamide] | < 100000 | < 200 | > 90 | –
3 | CNc1cc(Nc2cccn([C@H]3[C@@H]4COC[C@@H]43)c2=O)nn2c(C(=O)N[C@H]3CC[C@@H]3OC)cnc12 (racemic) [Compound I-22, 6-((1-((1R,5S,6r)-3-oxabicyclo[3.1.0]hexan-6-yl)-2-oxo-1,2-dihydropyridin-3-yl)amino)-N-(2-methoxycyclobutyl)-8-(methylamino)imidazo[1,2-b]pyridazine-3-carboxamide] | < 100000 | < 200 | 70 to 90 | –
4 | CNc1cc(Nc2cccn([C@H]3C[C@H](OC)C3)c2=O)nn2c(C(=O)N[C@H]3CC[C@@H]3OC)cnc12 (racemic) [Compound I-23, N-((1S,2S)-2-methoxycyclobutyl)-6-((1-((1r,3S)-3-methoxycyclobutyl)-2-oxo-1,2-dihydropyridin-3-yl)amino)-8-(methylamino)imidazo[1,2-b]pyridazine-3-carboxamide] | < 100000 | < 200 | 70 to 90 | –
5 | CNc1cc(Nc2cccn(-c3ncccc3F)c2=O)nn2c(C(=O)N[C@H]3CC[C@@H]3OC)cnc12 (stereo in doubt) [Compound I-17, 6-((3′-fluoro-2-oxo-2H-[1,2′-bipyridin]-3-yl)amino)-N-(2-methoxycyclobutyl)-8-(methylamino)imidazo[1,2-b]pyridazine-3-carboxamide] | < 100000 | < 200 | 50 to 70 | –
6 | CNc1cc(Nc2cccn(-c3ccccn3)c2=O)nn2c(C(=O)N[C@H]3CC[C@@H]3OC)cnc12 (stereo in doubt) [Compound I-18, N-(2-methoxycyclobutyl)-8-(methylamino)-6-((2-oxo-2H-[1,2′-bipyridin]-3-yl)amino)imidazo[1,2-b]pyridazine-3-carboxamide] | < 100000 | < 200 | 70 to 90 | –
7 | CNc1cc(Nc2cccn(-c3ccc(C)nc3)c2=O)nn2c(C(=O)N[C@H]3CC[C@@H]3OC)cnc12 (stereo in doubt) [Compound I-19, N-(2-methoxycyclobutyl)-6-((6′-methyl-2-oxo-2H-[1,3′-bipyridin]-3-yl)amino)-8-(methylamino)imidazo[1,2-b]pyridazine-3-carboxamide] | < 100000 | < 200 | 50 to 70 | –
8 | CNc1cc(Nc2cccn(C3CCOCC3)c2=O)nn2c(C(=O)N[C@H]3CC[C@@H]3OC)cnc12 (stereo in doubt) [Compound I-20, N-(2-methoxycyclobutyl)-8-(methylamino)-6-((2-oxo-1-(tetrahydro-2H-pyran-4-yl)-1,2-dihydropyridin-3-yl)amino)imidazo[1,2-b]pyridazine-3-carboxamide] | < 100000 | < 200 | 70 to 90 | –
9 | CNc1cc(-c2cn(C(C)C)c3ncccc23)nn2c(C(=O)N[C@@H]3CC[C@@H]3O)cnc12 [Compound I-7, N-((1R,2S)-2-hydroxycyclobutyl)-6-(1-isopropyl-1H-pyrrolo[2,3-b]pyridin-3-yl)-8-(methylamino)imidazo[1,2-b]pyridazine-3-carboxamide] | – | < 200 | – | inhibition at 10 µM (Tyk2 kinase domain (JH1)): < 50%; inhibition at 10 µM (JAK1 kinase domain): < 50%; inhibition at 10 µM (JAK3 kinase domain): < 50%; inhibition at 10 µM (JAK2 kinase domain (JH1)): < 50%
10 | CNc1cc(-c2cn(C3CCOCC3)c3ncccc23)nn2c(C(=O)N[C@@H]3CC[C@@H]3O)cnc12 [Compound I-8, N-((1R,2S)-2-hydroxycyclobutyl)-8-(methylamino)-6-(1-(tetrahydro-2H-pyran-4-yl)-1H-pyrrolo[2,3-b]pyridin-3-yl)imidazo[1,2-b]pyridazine-3-carboxamide] | – | < 200 | – | –
11 | CNc1cc(-c2cn(CCN3CCOCC3)c3ncccc23)nn2c(C(=O)N[C@@H]3CC[C@@H]3O)cnc12 [Compound I-9, N-((1R,2S)-2-hydroxycyclobutyl)-8-(methylamino)-6-(1-(2-morpholinoethyl)-1H-pyrrol[2,3-b]pyridin-3-yl)imidazo[1,2-b]pyridazine-3-carboxamide] | – | 200 to 1000 | – | inhibition at 10 µM (JAK1 kinase domain): < 50%; inhibition at 10 µM (JAK3 kinase domain): < 50%; inhibition at 10 µM (JAK2 kinase domain (JH1)): < 50%
12 | CNc1cc(-c2cn(C3CCOCC3)c3ncccc23)nn2c(C(=O)N[C@H]3CC[C@H]3O)cnc12 [Compound I-11, N-((1S,2R)-2-hydroxycyclobutyl)-8-(methylamino)-6-(1-(tetrahydro-2H-pyran-4-yl)-1H-pyrrolo[2,3-b]pyridin-3-yl)imidazo[1,2-b]pyridazine-3-carboxamide] | – | < 200 | 70 to 90 | –
13 | CNc1cc(-c2cn(C(C)C)c3ncccc23)nn2c(C(=O)N[C@@H]3COC[C@@H]3O)cnc12 [Compound I-13, N-((3R,4R)-4-hydroxytetrahydrofuran-3-yl)-6-(1-isopropyl-1H-pyrrolo[2,3-b]pyridin-3-yl)-8-(methylamino)imidazo[1,2-b]pyridazine-3-carboxamide] | – | 200 to 1000 | – | –
14 | CNc1cc(-c2cn(C(C)C)c3ncccc23)nn2c(C(=O)N[C@H]3COC[C@H]3O)cnc12 [Compound I-14, N-((3S,4S)-4-hydroxytetrahydrofuran-3-yl)-6-(1-isopropyl-1H-pyrrolo[2,3-b]pyridin-3-yl)-8-(methylamino)imidazo[1,2-b]pyridazine-3-carboxamide] | – | < 200 | 70 to 90 | –
